Key:
[1] = target: T1, Muscarinic acetylcholine receptor M4 (Homo sapiens, UniProt P08173); assay type: cell membranes, CHO-K1, Membrane; settings: cho-k1
T1 sequence (P08173 whole entry): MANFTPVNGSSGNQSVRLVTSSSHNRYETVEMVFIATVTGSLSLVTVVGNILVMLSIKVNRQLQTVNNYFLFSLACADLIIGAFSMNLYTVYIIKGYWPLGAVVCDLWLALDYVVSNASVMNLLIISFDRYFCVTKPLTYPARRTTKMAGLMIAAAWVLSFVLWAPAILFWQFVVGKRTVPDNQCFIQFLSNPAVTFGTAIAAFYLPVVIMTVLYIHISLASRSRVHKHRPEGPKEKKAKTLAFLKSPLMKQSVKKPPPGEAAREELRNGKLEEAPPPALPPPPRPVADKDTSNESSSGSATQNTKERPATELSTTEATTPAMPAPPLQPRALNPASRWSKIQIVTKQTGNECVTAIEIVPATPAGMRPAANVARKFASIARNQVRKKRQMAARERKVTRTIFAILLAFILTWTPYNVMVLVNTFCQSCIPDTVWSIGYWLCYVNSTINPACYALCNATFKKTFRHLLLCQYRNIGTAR

[2] = target: T2, Receptor-type tyrosine-protein phosphatase C (Homo sapiens, UniProt P08575); parameters: species or system Escherichia coli;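 note: inhibition of CD45 enzyme activity measured using DiFMUP as substrate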
T2 sequence (P08575 whole entry): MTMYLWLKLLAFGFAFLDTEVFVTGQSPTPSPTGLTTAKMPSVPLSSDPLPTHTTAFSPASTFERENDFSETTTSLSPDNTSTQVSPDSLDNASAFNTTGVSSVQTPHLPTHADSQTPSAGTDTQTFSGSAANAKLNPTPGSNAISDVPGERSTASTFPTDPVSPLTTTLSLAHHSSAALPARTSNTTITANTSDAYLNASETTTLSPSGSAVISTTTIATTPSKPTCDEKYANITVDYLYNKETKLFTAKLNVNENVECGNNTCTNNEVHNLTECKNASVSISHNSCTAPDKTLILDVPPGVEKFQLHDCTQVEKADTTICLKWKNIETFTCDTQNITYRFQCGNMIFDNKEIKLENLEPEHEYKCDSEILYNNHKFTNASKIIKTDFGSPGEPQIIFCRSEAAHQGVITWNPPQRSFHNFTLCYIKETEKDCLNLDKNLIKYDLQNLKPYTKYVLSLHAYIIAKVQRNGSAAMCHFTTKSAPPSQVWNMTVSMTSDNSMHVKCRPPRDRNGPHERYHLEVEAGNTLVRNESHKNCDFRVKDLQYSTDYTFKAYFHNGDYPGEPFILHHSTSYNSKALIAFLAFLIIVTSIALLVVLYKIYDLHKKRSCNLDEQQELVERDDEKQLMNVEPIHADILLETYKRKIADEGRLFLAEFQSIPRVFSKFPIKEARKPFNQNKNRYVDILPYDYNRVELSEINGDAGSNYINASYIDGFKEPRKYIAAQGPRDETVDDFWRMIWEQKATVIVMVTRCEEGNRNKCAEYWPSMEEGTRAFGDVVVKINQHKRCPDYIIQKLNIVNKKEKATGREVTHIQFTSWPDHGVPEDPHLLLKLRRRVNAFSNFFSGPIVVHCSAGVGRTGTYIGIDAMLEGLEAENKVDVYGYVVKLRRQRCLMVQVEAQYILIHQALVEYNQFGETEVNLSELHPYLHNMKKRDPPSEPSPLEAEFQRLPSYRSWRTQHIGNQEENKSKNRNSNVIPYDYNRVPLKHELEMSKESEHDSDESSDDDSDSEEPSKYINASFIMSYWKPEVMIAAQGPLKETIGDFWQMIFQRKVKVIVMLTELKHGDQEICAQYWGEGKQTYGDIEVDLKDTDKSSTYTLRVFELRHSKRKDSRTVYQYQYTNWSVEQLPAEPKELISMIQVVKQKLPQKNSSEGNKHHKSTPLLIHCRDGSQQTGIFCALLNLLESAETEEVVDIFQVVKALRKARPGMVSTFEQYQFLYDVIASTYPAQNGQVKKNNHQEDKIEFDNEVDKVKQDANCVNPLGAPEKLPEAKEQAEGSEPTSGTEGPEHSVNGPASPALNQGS

Calcitonin receptor = target: T3, Calcitonin receptor (Homo sapiens, UniProt P30988); assay type: cell membranes, Membrane; settings: t47d
T3 sequence (P30988 whole entry): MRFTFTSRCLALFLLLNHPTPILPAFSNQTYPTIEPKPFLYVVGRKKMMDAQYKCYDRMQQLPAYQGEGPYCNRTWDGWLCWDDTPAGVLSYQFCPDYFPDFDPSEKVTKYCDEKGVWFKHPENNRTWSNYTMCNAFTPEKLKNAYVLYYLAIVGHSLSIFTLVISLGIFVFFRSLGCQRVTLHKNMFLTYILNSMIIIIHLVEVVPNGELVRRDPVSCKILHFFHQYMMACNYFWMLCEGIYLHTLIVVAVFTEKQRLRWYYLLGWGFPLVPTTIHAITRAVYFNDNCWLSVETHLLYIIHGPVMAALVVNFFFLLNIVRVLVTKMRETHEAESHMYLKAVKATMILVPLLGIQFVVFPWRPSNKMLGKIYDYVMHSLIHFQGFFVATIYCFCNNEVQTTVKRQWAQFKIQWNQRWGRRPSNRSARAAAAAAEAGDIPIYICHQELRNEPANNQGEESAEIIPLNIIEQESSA

[3] = target: Vascular endothelial growth factor receptor 1 (Homo sapiens, UniProt P17948); assay type: cell-based; settings: huvec
Chain of Vascular endothelial growth factor receptor 1 (P17948 whole entry): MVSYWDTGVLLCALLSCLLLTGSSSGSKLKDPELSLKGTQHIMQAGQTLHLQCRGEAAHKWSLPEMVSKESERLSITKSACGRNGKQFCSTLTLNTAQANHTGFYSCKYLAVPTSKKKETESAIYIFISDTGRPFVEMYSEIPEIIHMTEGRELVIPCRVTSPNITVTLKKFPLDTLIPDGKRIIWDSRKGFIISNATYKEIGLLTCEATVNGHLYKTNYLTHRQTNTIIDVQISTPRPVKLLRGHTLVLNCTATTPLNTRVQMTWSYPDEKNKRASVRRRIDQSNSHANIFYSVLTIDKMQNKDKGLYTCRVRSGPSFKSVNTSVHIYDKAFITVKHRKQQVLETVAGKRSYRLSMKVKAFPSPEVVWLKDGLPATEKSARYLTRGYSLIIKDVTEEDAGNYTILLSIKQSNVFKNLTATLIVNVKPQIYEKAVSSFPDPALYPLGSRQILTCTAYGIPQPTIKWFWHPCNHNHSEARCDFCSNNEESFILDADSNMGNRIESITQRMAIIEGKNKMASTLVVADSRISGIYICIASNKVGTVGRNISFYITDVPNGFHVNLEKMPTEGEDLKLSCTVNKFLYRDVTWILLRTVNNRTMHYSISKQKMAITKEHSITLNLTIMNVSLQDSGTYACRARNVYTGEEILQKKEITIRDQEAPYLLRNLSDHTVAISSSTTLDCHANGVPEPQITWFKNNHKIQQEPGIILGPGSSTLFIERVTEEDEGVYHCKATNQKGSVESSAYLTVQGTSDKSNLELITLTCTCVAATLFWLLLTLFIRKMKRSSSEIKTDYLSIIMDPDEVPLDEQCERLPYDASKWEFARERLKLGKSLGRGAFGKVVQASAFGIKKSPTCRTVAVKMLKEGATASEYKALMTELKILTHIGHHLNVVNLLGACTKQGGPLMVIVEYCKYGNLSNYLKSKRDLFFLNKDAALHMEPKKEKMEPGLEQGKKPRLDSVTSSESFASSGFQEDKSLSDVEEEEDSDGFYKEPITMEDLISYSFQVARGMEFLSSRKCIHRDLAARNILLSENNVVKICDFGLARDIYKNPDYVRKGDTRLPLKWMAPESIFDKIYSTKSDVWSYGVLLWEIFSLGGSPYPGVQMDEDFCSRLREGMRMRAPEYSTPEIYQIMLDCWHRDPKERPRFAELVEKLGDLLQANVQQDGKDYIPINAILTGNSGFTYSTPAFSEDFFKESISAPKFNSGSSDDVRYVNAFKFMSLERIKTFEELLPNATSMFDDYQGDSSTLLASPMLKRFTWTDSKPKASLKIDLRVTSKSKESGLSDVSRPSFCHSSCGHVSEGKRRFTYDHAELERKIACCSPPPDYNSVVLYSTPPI

Adenosine receptor A1 = target: T4, Adenosine receptor A1 (Homo sapiens, UniProt P30542); assay type: cell membranes, CHO, Membrane; settings: cho;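 note: radioligand binding assay at the adenosine A1 receptor, with DPCPX serving as the labelled ligand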
T4 sequence (P30542 whole entry): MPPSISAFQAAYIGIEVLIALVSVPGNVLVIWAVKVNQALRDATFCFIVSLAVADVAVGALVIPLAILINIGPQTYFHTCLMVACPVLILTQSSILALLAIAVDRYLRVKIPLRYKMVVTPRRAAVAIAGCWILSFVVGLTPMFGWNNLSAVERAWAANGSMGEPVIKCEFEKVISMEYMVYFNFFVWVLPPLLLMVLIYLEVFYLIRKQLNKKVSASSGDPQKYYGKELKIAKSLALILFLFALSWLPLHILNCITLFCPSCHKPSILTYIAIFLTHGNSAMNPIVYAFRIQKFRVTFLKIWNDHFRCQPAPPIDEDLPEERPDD
Note: in other assays of this panel Not Active means under 50% inhibition at 10 µM.

LEAD (II) ACETATE
Not Active: IC50 [1] | Ki [1] | IC50 [2] | Ki [2] | IC50 (Calcitonin receptor) | Ki (Calcitonin receptor) | IC50 [3] | Ki [3] | IC50 (Adenosine receptor A1) | Ki (Adenosine receptor A1)

LIPOPOLYSACCHARIDE E. COLI O55:B5
Not Active: IC50 [1] | Ki [1] | IC50 [2] | Ki [2] | IC50 (Calcitonin receptor) | Ki (Calcitonin receptor) | IC50 [3] | Ki [3] | IC50 (Adenosine receptor A1) | Ki (Adenosine receptor A1)
